How the values were obtained:
[1] = system: luciferase-expressing P. berghei ANKA sporozoites; test: Real time in vivo imaging (IVIS) of liver-stage luminescence in sporozoite-infected mice; design: species or system Plasmodium berghei; details: for Suppression rate (%) IVIS 24 h: 24 h post infection; for Suppression rate (%) IVIS 48 h: 48 h post infection; for Suppression rate (%) IVIS 72 h: 72 h post infection
Description: Luciferase-expressing P. berghei ANKA sporozoites were obtained from laboratory-reared female An. stephensi mosquitoes from the Department of Mosquito Biology, WRAIR. […] Salivary glands were extracted from malaria-infected mosquitoes and kept on ice in RPMI medium with 1% mouse serum. Sporozoites will be recovered by the method of Ozaki, and quantitated using a haemocytometer. Sporozoites isolated from the same batch of mosquitoes will be inoculated into C57BL/6 albino mice on the same day to control for biological variability in sporozoite preparations. Each C57BL/6 mouse will be inoculated intravenously in the tail vein with approximately 50,000 sporozoites suspended in 0.1 mL volume on day 0. To ensure that inoculated sporozoites are viable following the isolation procedure, they will be stained with a vital dye containing fluorescein diacetate (50 mg/mL in acetone) and ethidium bromide (20 μg/mL in phosphate-buffered saline; Sigma Chemical Co., St. Louis, Mo.) and counted in a haemocytometer.
[…] […] Additionally, blood stage infections were measured by flow cytometry. Positive and negative controls were used for the IVIS calibration in each test.
(§1) Causal prophylactic effects and delay in onset of parasitaemia in animals treated with TQ and PQ (Figure 1) were assessed in these experiments, which included a positive control, 4-methyl-PQ. All dosing was conducted based on the body weight at the time of preparation of the dosing solution. […] Each animal received 0.1 - 0.2 ml of the oral solutions, delivered via an intragastric feeder (18-gauge) to the designated recipient. Stock solutions of test compounds were prepared fresh daily by grinding the needed amount of drug in cold (4°C) 0.5% (w/v) hydroxyethyl cellulose and 0.2% (v/v) Tween-80 (0.5% HECT) and diluting the resulting solution at variable concentrations. C57BL/6 albino mice were challenged intravenously with 50,000 luciferase-expressing P. berghei sporozoites extracted from the salivary glands of heavily infected An. stephensi mosquitoes. […] At day 5–30 after infection, the same mice were analysed for blood stage infection by determination of the course of parasitaemia of tail blood by flow cytometry using an FC500 flow cytometer (Beckman-Coulter Co. CA).
In vivo imaging studies of bioluminescence activity from luciferase expressing P. berghei infected mice were performed using a Perkin Elmer IVIS Spectrum (Hanover, MD). […] Three minutes post luciferin administration the mice were anesthetized with inhaled isoflurane. The mice were then positioned ventral side up in the IVIS on a 37°C platform. The mice continue to receive isoflurane through nose cone delivery. The camera exposure times utilized were 1 and 5 minutes for the 24, 48, and 72 hour time points with f-stop = 1 and large binning setting. Quantitative analysis of bioluminescence emitted from whole bodies or region of intensity (ROI) were determined by measuring the luminescence signal intensity in photons/second using the ROI settings of the Living Image® 3.0 software. The ROI, which measurements were expressed in total flux of photons, was set to measure the abdominal area at the location of the liver from whole body imaging.
In the in vivo imaging experiments, causal prophylaxis activity, sporontocidal activity, parasite clearance, causal cure, delays in patency, and time to recrudescence were calculated as described previously. The minimum curative dose (MCD100) in 100% animals was defined as the lowest dose, which cured all animals (>5 animals) in a group at any time during the first 30 days of the follow-up period.

[2] = system: P. berghei ANKA blood stage parasitaemia; test: Blood stage infection by flow cytometry (FCM) and causal prophylaxis outcome after sporozoite challenge; type: in vivo, Plasmodium berghei; details: for Effects: CP = causal prophylaxis; for Blood Infection by FCM: infected/challenged mice
Protocol: Novel and control anti-malarials were administered orally on days -1, 0, and 1 with respect to sporozoite inoculation. […] Additionally, blood stage infections were measured by flow cytometry. Positive and negative controls were used for the IVIS calibration in each test.
as §1
At day 5–30 after infection, the same mice were analysed for blood stage infections by quantitation of malaria parasites by flow cytometry (FCM). All FCM analyses were carried out with a FC500 MPL flow cytometer (Beckman Coulter, Fullerton, CA), which conducts five-colour analysis from either single or dual laser excitation. Infected erythrocytes, uninfected erythrocytes, and leukocytes were gated on logarithmic forward/side dot plots. Cells were analysed at an average rate of 2,000-3,000 erythrocytes/s. Filters were placed before the green (FL-1) and red (FL-2) photomultiplier tubes (PMTs) such that the green PMT registered fluorescence emission between 520 and 555 nm, and the red PMT measured emission greater than 580 nm.
A drop of blood (3 μL) from the mouse tail was collected directly into 0.3 ml of 1% heparinized isotonic buffer (PBS saline). In this study, 1 ml 0.04% of glutaraldehyde was used for fixation and the samples were then incubated at 4°C for 60 minutes. The cells were centrifuged at 450 × g for 5 min. […] After centrifugation, the permeabilized cells were re-suspended in 0.5 ml of RNAse at 1 mg/ml concentrations and incubated for at least 2 hours at 37°C to ensure complete digestion of reticulocytes. Plasmodium berghei infection in mice results in anaemia which then results in reticulocytosis. Therefore, high RNAse concentrations for digesting large amounts of reticulocytes RNA were required for assessment of parasitaemia in this mouse model.
In the in vivo imaging experiments, causal prophylaxis activity, sporontocidal activity, parasite clearance, causal cure, delays in patency, and time to recrudescence were calculated as described previously. The minimum curative dose (MCD100) in 100% animals was defined as the lowest dose, which cured all animals (>5 animals) in a group at any time during the first 30 days of the follow-up period. […] Means and standard deviations of photon measurement were calculated. Blood stage infection was defined as two positive blood samples by flow cytometry, taken daily apart. The negative blood samples were monitored until day 15 after inoculation. Coefficients of variation were calculated as a percentage by dividing the standard deviation by the mean value.

[3] = 1.25 mg/kg oral, 3 days (-1, 0, 1)
[4] = 5 mg/kg oral, 3 days (-1, 0, 1)
[5] = 5 mg/kg single oral dose on day 0
[6] = 5 mg/kg single oral dose on day -1
[7] = 10 mg/kg oral, 3 days (-1, 0, 1)
[8] = 15 mg/kg oral, 3 days (-1, 0, 1)
[9] = 20 mg/kg oral, 3 days (-1, 0, 1)
[10] = 25 mg/kg oral, 3 days (-1, 0, 1)
[11] = 25 mg/kg single oral dose on day 0
[12] = 25 mg/kg single oral dose on day -1

Structure (SMILES): COc1cc(C)c2c(Oc3cccc(C(F)(F)F)c3)c(OC)cc(NC(C)CCCN)c2n1 (stereo not drawn) [Tafenoquine, tafenoquine]
- Suppression rate (%) IVIS 24 h [1, 3]: 84.7%
- Suppression rate (%) IVIS 48 h [1, 3]: 92.3%
- Suppression rate (%) IVIS 72 h [1, 3]: 98.9%
- Suppression rate (%) IVIS 48 h [1, 4]: 100%
- Suppression rate (%) IVIS 72 h [1, 4]: 100%
- Suppression rate (%) IVIS 24 h [1, 5]: 66.0%
- Suppression rate (%) IVIS 48 h [1, 5]: 91.1%
- Suppression rate (%) IVIS 72 h [1, 5]: 98.5%
- Suppression rate (%) IVIS 24 h [1, 6]: 68.7%
- Suppression rate (%) IVIS 48 h [1, 6]: 98.6%
- Suppression rate (%) IVIS 72 h [1, 6]: 100%
- Suppression rate (%) IVIS 24 h [1, 7]: 100%
- Suppression rate (%) IVIS 48 h [1, 7]: 100%
- Suppression rate (%) IVIS 72 h [1, 7]: 100%
- Number of C57BL/albino mice Causal prophylaxis [2, 3]: 1/5
- Number of C57BL/albino mice Protected completely [2, 3]: 1
- Effects [2, 3]: Suppression
- Blood Infection by FCM [2, 3]: 4/5
- Number of C57BL/albino mice Causal prophylaxis [2, 4]: 13/13
- Number of C57BL/albino mice Protected completely [2, 4]: 13
- Effects [2, 4]: Full CP
- Blood Infection by FCM [2, 4]: 0/13
- Number of C57BL/albino mice Causal prophylaxis [2, 5]: 1/5
- Number of C57BL/albino mice Protected completely [2, 5]: 1
- Effects [2, 5]: Partial CP
- Blood Infection by FCM [2, 5]: 4/5
- Number of C57BL/albino mice Causal prophylaxis [2, 6]: 10/10
- Number of C57BL/albino mice Protected completely [2, 6]: 10
- Effects [2, 6]: Full CP
- Blood Infection by FCM [2, 6]: 0/10
- Blood Infection by FCM ([2]; 5 mg/kg single oral dose on day -1, listed as TQ): no blood stage parasitaemia
- Number of C57BL/albino mice Causal prophylaxis [2, 7]: 5/5
- Number of C57BL/albino mice Protected completely [2, 7]: 5
- Effects [2, 7]: Full CP
- Blood Infection by FCM [2, 7]: 0/5
- Number of C57BL/albino mice Causal prophylaxis ([2]; […] oral, 3 days (-1, 0, 1)): 3/5
- Number of C57BL/albino mice Protected completely ([2]; […] oral, 3 days (-1, 0, 1)): 3
- minimal curative single oral dose ([2]; single oral dose, causal prophylaxis in mice): 5 mg/kg
- causal activity ([2]; three oral doses: TQ 5 mg/kg, PQ 25 mg/kg): 100%

Structure (SMILES): COc1cc(NC(C)CCCN)c2ncccc2c1 (stereo not drawn) [Primaquine, primaquine]
- Suppression rate (%) IVIS 24 h [1, 4]: 82.4%
- Suppression rate (%) IVIS 48 h [1, 4]: 77.5%
- Suppression rate (%) IVIS 72 h [1, 4]: 89.4%
- Suppression rate (%) IVIS 24 h [1, 7]: 100%
- Suppression rate (%) IVIS 48 h [1, 7]: 97.6%
- Suppression rate (%) IVIS 72 h [1, 7]: 100%
- low level of luminescence ([1]; 10 mg/kg x 3 days, 5 of 10 animals, 48 hours): 0.66 × 10^5 photons/sec
- Suppression rate (%) IVIS 24 h [1, 8]: 100%
- Suppression rate (%) IVIS 48 h [1, 8]: 100%
- Suppression rate (%) IVIS 72 h [1, 8]: 100%
- Suppression rate (%) IVIS 24 h [1, 9]: 100%
- Suppression rate (%) IVIS 48 h [1, 9]: 100%
- Suppression rate (%) IVIS 72 h [1, 9]: 100%
- Suppression rate (%) IVIS 24 h [1, 10]: 100%
- Suppression rate (%) IVIS 48 h [1, 10]: 100%
- Suppression rate (%) IVIS 72 h [1, 10]: 100%
- Suppression rate (%) IVIS 24 h [1, 11]: 11.2%
- Suppression rate (%) IVIS 48 h [1, 11]: 0%
- Suppression rate (%) IVIS 72 h [1, 11]: 0%
- Suppression rate (%) IVIS 24 h [1, 12]: 45.7%
- Suppression rate (%) IVIS 48 h [1, 12]: 0%
- Suppression rate (%) IVIS 72 h [1, 12]: 0%
- liver luminescence after 24 hours ([1]; single oral dose 25 mg/kg): high levels of luminescence and no suppression of signal
- Effects [2, 4]: Suppression
- Blood Infection by FCM [2, 4]: 5/5
- Effects [2, 7]: Partial CP
- Blood Infection by FCM [2, 7]: 5/10
- Effects [2, 8]: Partial CP
- Blood Infection by FCM [2, 8]: 4/20
- Effects [2, 9]: Partial CP
- Blood Infection by FCM [2, 9]: 1/10
- Delay in patency (days after onset in controls) ([2]; 20 mg/kg oral, 3 days (-1, 0, 1), per infected mouse): 6 days
- Effects [2, 10]: Full CP
- Blood Infection by FCM [2, 10]: 0/10
- Effects [2, 11]: Suppression
- Blood Infection by FCM [2, 11]: 5/5
- Effects [2, 12]: Suppression
- Blood Infection by FCM [2, 12]: 5/5
- blood stage parasitaemia 5–30 days after infection ([2]; single oral dose 25 mg/kg): severe parasitaemia

Source: article PMC3989846 (Malaria Journal, 2014)
